According to patent publication US4590275A, “Benzoheterazolo[3,2-a]quinolinium salts” (Commonwealth of Puerto Rico, priority 1983, dated 1986):
Read-outs that look alike come from different tables or passages of the source.

What was measured:
L1210 murine leukemia = conditions: cited from earlier work
P388 murine leukemia = conditions: cited from earlier work
KB cells = assay: Cytotoxic activity in vitro, KB cells; assay type: cell-based; conditions: for IC50: Homo sapiens, KB cells, average of at least three experiments, read-out: ED50 KB
Experimental: (§1) It appears that structural variations such as replacement of sulfur for oxygen or selenium as well as changes in the electronic nature of the substituents are critical factors in eliciting the inhibitory activity. Since in general satisfactory cytotoxic activity "in vitro" corresponds to good antitumor activity in vivo, the antitumor activity of compound Ib was assessed in mice bearing Ehrlich ascites tumor. A range of doses from 400 mg/kg to 90 mg/kg were tested, each given in a one dose basis, 24 h after tumor implantation. […] Compound Ib was also tested against P388 leukemia in mice.
(§2) HeLa-229 and KB cells were used for in vitro tissue culture cytotoxicity experiments. Cells were grown in monolayer culture in Difco TC Minimal Medium Eagle and supplemented with 10% foetal calf serum (Flow). Subculturing was performed every 6-7 days. Ehrlich ascites tumor was maintained in serial passages at two week intervals in Albino Swiss mice by intraperitoneal implant.
(§3) The method was essentially as described in Cancer Chemotherapy Rep. Part 3, 3, 2 (1972); NCl Monograph 45, p. 150. Drugs were always suspended in sterile 0.5% carboxymethyl cellulose. As a positive control 1 μM 6-mercaptopurine was always included.

DNA synthesis = conditions: probably by interacting with A:T base pairs; cited from earlier work
Ehrlich ascites tumor = assay: Antitumor activity against Ehrlich ascites tumor in mice; assay type: in vivo, female Albino Swiss mice; conditions: for death of mice: one dose; for T/C: Day 12
Experimental: as §1, §2
(§4) The mice used through these experiments were female Albino Swiss mice.
(§5) Each group consisted of five to six weight matched animals. To begin the antitumor experiment 1×10^6 viable cells (trypan blue exclusion test) were injected ip. Test compounds were suspended in 0.9% (w/v) NaCl solution containing 0.10% (v/v) Tween 80 at the higher concentration. Lower doses were obtained by serial dilutions with 0.9% NaCl and injected ip in a volume of 0.5 ml in a single dose 24 h after implantation of the tumor. Animal body weights were recorded daily during the next 30 days and the survival was followed for the next 60 days. The P388 leukemia assay was performed according to standard protocol, Cancer Chemotherapy Rep.; Part 3, 3, 2 (1972); NCl Monograph 45, p. 150.
(§6) ^a Average of three tests except when noted.
(§7) ^b and ^c Assay performed according to procols of NCl.
(§8) ^d Treatment given ip on Day 1.
^f Toxicity = LTS number of toxic deaths/number of treated mice.
^g LTS = long term survivors (60 days)/number of treated mice.

HeLa cells = assay: Cytotoxic activity in vitro, HeLa cells; assay type: cell-based
Experimental: as §1, §2, §3

[1] = system: Herpes simplex virus (HSV-1) infected KB cells; assay: Protein synthesis in HSV-1 infected and mock-infected KB cells; assay type: cell-based; conditions: for inhibition of translation (protein synthesis): infected vs mock-infected KB cells
Experimental: In addition, herpes simplex virus (HSV-1) infected KB cells and KB mock-infected cells were assayed for protein synthesis in the presence of Ib at different concentrations.
Screening of antibiotic action on protein synthesis in virus infected cells.
Herpes simplex virus (HSV-1) infected KB cells and KB mock-infected cells were assayed for protein synthesis in the presence of nitrobenzothiazolo quinolium perchlorate at different concentrations. After infection or mock-infection nitrobenzothiazolo quinolium perchlorate was added at the concentration of 100, 50, 25, 5 and 1.5 μg/ml and incubated for 48 hours.
After the incubation time, protein synthesis was measured by addition of 0.1 μCi^35 S methionine ([…]; 5.4 mCl/ml) and incubated for 1 hour. After incubation the medium was removed, the reaction stopped and the radioactivity estimated in an Intertechnique liquid scintillation spectrometer.
The value 100% of control represents 72,484 cpm (mock-infected KB cells).

P388 leukemia = assay: Antitumor activity against P388 leukemia in mice; assay type: in vivo
Experimental: as §1, §4, §5, §6, §7
5Fluorouracil was used as control (200 mg/kg/ing).
as §8
^h Median survival time of treated mice/median survival of control
× 100. Values of T/C 120 denote activity.

[2] = Ehrlich ascites, 90 mg/kg ip on Day 1, two test results
[3] = Ehrlich ascites, 100 mg/kg ip on Day 1, two test results
[4] = Ehrlich ascites, 150 mg/kg ip on Day 1
[5] = Ehrlich ascites, 200 mg/kg ip on Day 1
[6] = Ehrlich ascites, 250 mg/kg ip on Day 1
[7] = Ehrlich ascites, 400 mg/kg ip on Day 1

Q: For `COc1cc2cc3c4cc(OC)c(OC)cc4cc[n+]3c(C)c2cc1OC` [Coralyne], which antitumor activity (L1210 murine leukemia) is on record?
A: The antitumor activity was “exhibits antitumor activity”.

Q: And the antitumor activity (P388 murine leukemia)?
A: Its antitumor activity is “exhibits antitumor activity”.

Q: For `O=[N+]([O-])c1ccc2c(ccc3[se]c4ccccc4[n+]32)c1.[O-][Cl+3]([O-])([O-])[O-]` [Il, 3-Nitrobenzoselenazolo(3,2-a)quinolinium Perchlorate], which IC50 (KB cells) is on record?
A: Its IC50 is 100 µg/mL.

Q: Which “inhibition of DNA synthesis” value (DNA synthesis) does the source give for `COc1cc2c(ccc3c4cc(OC)c(OC)cc4c[n+](C)c23)cc1O` [fagaronine] here?
A: Its value is “inhibit DNA synthesis”.

Q: What about the antitumor activity (L1210 murine leukemia) of the same compound?
A: Its antitumor activity is “potent antitumor activity”.

Q: And the antitumor activity (P388 murine leukemia)?
A: The antitumor activity was “potent antitumor activity”.

Q: Which results are given for `COc1cc2c[n+](C)c3c4cc5c(cc4ccc3c2cc1OC)OCO5` [nitidine]?
A: inhibition of DNA synthesis (DNA synthesis): inhibit DNA synthesis; antitumor activity (L1210 murine leukemia): potent antitumor activity; antitumor activity (P388 murine leukemia): potent antitumor activity

Q: Which results are given for `O=[N+]([O-])c1ccc2c(ccc3sc4ccccc4[n+]32)c1.[O-][Cl+3]([O-])([O-])[O-]` [Ib, 3-Nitrobenzothiazolo(3,2-a)quinolinium Perchlorate]?
A: death of mice (Ehrlich ascites tumor; 300 mg/kg): died within 24 h of injection; death of mice (Ehrlich ascites tumor; 400 mg/kg): died within 24 h of injection; T/C (Ehrlich ascites tumor; [2]): 57.3%; LTS, long term survivors (60 days)/number of treated mice (Ehrlich ascites tumor; [2]): 5/10; Survival (Ehrlich ascites tumor; [2]): 3/5; T/C (Ehrlich ascites tumor; [3]): 35.8%; LTS, long term survivors (60 days)/number of treated mice (Ehrlich ascites tumor; [3]): 12/12; Survival (Ehrlich ascites tumor; [3]): 6/6; LTS, long term survivors (60 days)/number of treated mice (Ehrlich ascites tumor; [4]): 15/18; Survival (Ehrlich ascites tumor; [4]): 6/6; T/C (Ehrlich ascites tumor; [4]): -0.4%; LTS, long term survivors (60 days)/number of treated mice (Ehrlich ascites tumor; [5]): 18/18; Survival (Ehrlich ascites tumor; [5]): 6/6; T/C (Ehrlich ascites tumor; [5]): -6.9%; LTS, long term survivors (60 days)/number of treated mice (Ehrlich ascites tumor; [6]): 15/18; Survival (Ehrlich ascites tumor; [6]): 6/6; T/C (Ehrlich ascites tumor; [6]): -2.5%; Survival (Ehrlich ascites tumor; [7]): 0/6; Toxicity (toxic deaths/number of treated mice) (Ehrlich ascites tumor; [7]): 6/6; T/C value (Ehrlich ascites tumor; Ehrlich ascites, most effective dose 200 mg/kg, one dose 24 h after tumor implantation): -6.2; cytotoxicity, ranking among compounds I (HeLa cells; HeLa screen): highest cytotoxicity; IC50 (HeLa cells; Homo sapiens, HeLa cells, average of at least three experiments, read-out: ED50 HeLa): 0.9 µg/mL; IC50 (KB cells): 0.61 µg/mL; cytotoxicity, ranking among compounds I (KB cells; KB screen): highest cytotoxicity; virus yield [1]: drastic reduction on virus yield; virus yield ([1]; 5×10^-4 M, 48 hours): drastic reduction on virus yield; inhibition of translation (protein synthesis) ([1]; 5×10^-4 M, 48 hours): inhibited preferentially translation on infected cells; inhibition of translation (protein synthesis) [1]: inhibited preferentially translation on infected cells; Survival (P388 leukemia; 200 mg/kg ip on Day 1): 6/6; T/C (median survival time of treated mice/median survival of control × 100) (P388 leukemia; 200 mg/kg ip on Day 1, values of T/C 120 denote activity): 218; Survival (P388 leukemia; 400 mg/kg ip on Day 1): 0/6; Toxicity (P388 leukemia; 400 mg/kg ip on Day 1): 6/6
